Source: patent US20160015064A1, “COMPOUNDS, COMPOSITIONS, AND METHODS FOR MODULATING SWEET TASTE” (CHROMOCELL CORPORATION, priority 2013, published 2016)
Where a name gives a salt, the structure may show the parent alone.

Legend:
Assay type in all cases: in vivo, humans
[1] = system: perception of the sweet taste of an aqueous solution of sweetener; assay: Two-alternative forced choice sip and spit method (2AFC); details: compound 20 ppm with positive 2AFC
Description: The effect of the test compounds on the perception of the sweet taste of an aqueous solution of sweetener in humans was evaluated using a two-alternative forced choice “sip and spit” method (2AFC).
(§1) The aqueous sweetener solutions were prepared by adding, fructose, sucrose or glucose (by weight), to water to achieve the desired concentration.
(§2) Compounds were first prepared as a 500-fold concentrated stock solution in 100% ethanol. These concentrated stocks were then added to the aqueous sweetener solutions to result in a final ethanol concentration of 0.2%. The control (positive and negative) samples were also normalized to 0.2% ethanol. This level of ethanol was not seen to contribute any perceived sweetness.
The 2AFC test used for compound evaluation was a blind and randomized test where taste panelists (n=15) evaluate a pair of sweetener solutions at a time—one sample contains aqueous sweetener solution plus compound (i.e. test) while the other contains aqueous sweetener solution at higher concentration without compound (i.e. positive control). Each test sample was compared against a positive control. For example, if the test sample contained 1× sweetener concentration with compound (e.g. 5% sucrose with compound), the positive control sample contained a 1.1× sweetener concentration (e.g. 5.5% sucrose without compound).
Panelists were instructed not to eat or drink (except water) for at least 1 h before the test. During the test, panelists were instructed to sip each sample, swirl it around their mouth and then expectorate. After tasting each sample in the pair, panelists were instructed to record the sample that is “sweeter” in taste. Panelists cleansed their palates by rinsing with water, eating a cracker and waiting for an interval of about 5 minutes. Each pair was tasted twice. All samples were tasted at ambient temperatures. Data were analyzed using binomial probabilities.
Approximate levels of sweetness enhancement in column 5 of Table 2 were calculated as follows:
Approximate levels of sweetness enhancement=Sweetener concentration of positive control surpassed by the test sample, divided by sweetener concentration for compound-containing sample (e.g. 1.15×=5.75% sucrose/5% sucrose).

[2] = system: perception of the sweet taste of an aqueous solution of sweetener; assay: Ranking sip and spit test of sweetness perception (R index); details: 5% sucrose test sample, vs negative control
Description: The effect of the test compounds on the perception of the sweet taste of an aqueous solution of sweetener in humans was evaluated using a ranking “sip and spit” method.
as §1
Compounds were first prepared as a 500-fold concentrated stock solution in 100% ethanol. These concentrated stocks were then added to the aqueous sweetener solutions to result in a final ethanol concentration of 0.2%. The control (positive and negative) samples were also normalized to 0.2% ethanol.
In the ranking test used for compound evaluation, taste panelists (n=15), rank samples in increasing order of sweetness. One set, comprising of 6 samples, was presented to each panelists at a given time and are asked to rank them in order of increasing sweetness.
Panelists were instructed not to eat or drink (except water) for at least 1 h before the test. During the test, panelists were instructed to sip each sample, swirl it around their mouth and then expectorate. After tasting each set, panelists were instructed to rank the 6 samples within the set from least sweet to most sweet. Where rank 1—is lowest in sweetness and rank 6—is highest in sweetness. Panelists cleansed their palates by rinsing with water, eating a cracker and waiting for an interval of 10 minutes. All samples were tasted at ambient temperatures. Each sample was tasted twice.
R index analysis was utilized to determine the degree of difference between a test and control sample. It indicates the level of discrimination between two samples. […] A positive control sample was used to assess the ability of the panelists to accurately discriminate sweetness perception differences from the negative control.

[3] = system: perception of sweet taste, in an aqueous solution; assay: Inherent sweetness assessment, difference from control sip and spit method; details: compound 10 ppm in water, no sweetener
Description: The aqueous sucrose solutions were prepared by adding, sucrose (by weight), to water to achieve the desired concentration.
as §2, with “water” for “the aqueous sweetener solutions”, “(including positive control)” for “(positive and negative)”
The intrinsic effect of test compounds on the perception of sweet taste, in an aqueous solution, in humans was evaluated using a difference from control “sip and spit” method employing a verbal category scale.
In this method, panelists (n=12) evaluate one pair of samples at a time—one sample contains water plus compound (i.e. test) while the other contains water without compound (i.e. control). Panelists were instructed to first taste the un-blinded control followed by the test sample and asked to rate the size of sweetness difference between the test and control sample, using a 6 point verbal category scale:
Verbal category scale • No difference • Slight difference • Slight/moderate difference • Moderate difference • Moderate/large difference • Very large difference
4 blinded controls comprising of one negative control (0% sucrose) and 3 positive control samples (0.5% sucrose, 1% sucrose and 2% sucrose) were also included as part of the test to evaluate the ability of panelists to rank the difference in sweetness perception between 0.5% sucrose, 1% sucrose and 2% sucrose compared to 0% sucrose control.
Panelists were instructed not to eat or drink (except water) for at least 1 h before the test. During the test, panelists were instructed to sip each sample, swirl it around their mouth and then expectorate. Panelists cleansed their palates by rinsing with water, eating a cracker and waiting for an interval of about 5 minutes. All samples were tasted at ambient temperatures.
The verbal category response for each test sample was converted into an integer numerical value, from 1 to 6 (e.g. no difference=1 and very large difference=6). Total numbers of panelist responses per integer value were plotted as a histogram. An assessment was then made, comparing mean, mode of the numerical value, and the distribution of the histogram plots, for test samples as compared to that of the positive (0.5% sucrose, 1% sucrose and 2% sucrose) and negative control (0% sucrose) sample. Inherent sweetness levels are then correlated to the positive controls as discrete bins: • Bin 1: 0% sucrose • Bin 2: >0% sucrose—<0.5% sucrose • Bin 3: 0.5% sucrose • Bin 4: >0.5% sucrose—<1% sucrose • Bin 5: 1% sucrose • Bin 6: >1% sucrose—<2% sucrose • Bin 7: 2% sucrose

[4] = compound 10 ppm, significant at R index ≧60

## COc1ccc(C2CC(=O)c3c(O)cc(OCCCC(=O)O)cc3O2)cc1O (centres unmarked) [Compound 4, 4-((5-hydroxy-2-(3-hydroxy-4-methoxyphenyl)-4-oxochroman-7-yl)oxy)butanoic acid]
[1]; test sample 4% fructose
  Fold increase in perceived sweetness: >1.1X
[1]; test sample 5% sucrose
  Fold increase in perceived sweetness: >1.1X

## COc1ccc(C2CC(=O)c3c(Cl)cc(O)cc3O2)cc1O (centres unmarked) [Compound 17]
[1]; test sample 4% fructose
  Fold increase in perceived sweetness: 1.1X

## COc1cc(C2CC(=O)c3c(O)cccc3O2)ccc1C (centres unmarked) [Compound 16]
[1]; test sample 5% sucrose
  Fold increase in perceived sweetness: >1.1X

## O=C1CC(c2ccc(O)cc2)Oc2cccc(O)c21 (centres unmarked) [Compound 7, 5-hydroxy-2-(4-hydroxyphenyl)chroman-4-one]
[2]; [4]
  R Index Score: 71

## COc1ccc(C2CC(=O)c3c(O)cc(F)cc3O2)cc1O (centres unmarked) [Compound 15, 7-fluoro-5-hydroxy-2-(3-hydroxy-4-methoxyphenyl)chroman-4-one]
[1]; test sample 4% fructose
  Fold increase in perceived sweetness: >1.1X
[3]
  Correlated Inherent Sweetness Assessment: 0% sucrose

## COc1ccc(C2CC(=O)c3c(O)cc(C)cc3O2)cc1O (centres unmarked) [Compound 6, 5-hydroxy-2-(3-hydroxy-4-methoxyphenyl)-7-methylchroman-4-one]
[2]; [4]
  R Index Score: 82

## COc1ccc(C2CC(=O)c3c(O)cc(OCCCS(=O)(=O)O)cc3O2)cc1O (centres unmarked) [Compound 14, 3-((5-hydroxy-2-(3-hydroxy-4-methoxyphenyl)-4-oxochroman-7-yl)oxy)propane-1-sulfonic acid potassium salt]
[1]; test sample 4% fructose
  Fold increase in perceived sweetness: >1.1X

## O=C1CC(c2cccc(O)c2)Oc2cccc(O)c21 (centres unmarked) [Compound 12, 5-hydroxy-2-(3-hydroxyphenyl)chroman-4-one]
[2]; compound 2.5 ppm
  R Index Score: 62

## CCCOc1ccc(C2CC(=O)c3c(O)cc(O)cc3O2)cc1O (centres unmarked) [Compound 5, 5,7-dihydroxy-2-(3-hydroxy-4-propoxyphenyl)chroman-4-one]
[1]; test sample 4% fructose
  Fold increase in perceived sweetness: >1.1X

## O=C1CC(c2cccc(O)c2)Oc2cc(O)cc(O)c21 (centres unmarked) [Compound 10, 5,7-dihydroxy-2-(3-hydroxyphenyl)chroman-4-one]
[2]; [4]
  R Index Score: 65

## O=C1CC(c2ccc(O)c(O)c2)Oc2cccc(O)c21 (centres unmarked) [Compound 8, 2-(3,4-dihydroxyphenyl)-5-hydroxychroman-4-one]
[2]; [4]
  R Index Score: 69

## COC(=O)c1cccc(C2CC(=O)c3c(O)cc(O)cc3O2)c1 (centres unmarked) [Compound 13, methyl 3-(5,7-dihydroxy-4-oxochroman-2-yl)benzoate]
[2]; [4]
  R Index Score: 61
